Test results published in US20240335453A1, “METALLO-ß-LACTAMASE INHIBITORS” (University of KwaZulu-Natal, priority 2021, published 2024).
In brackets after ≈: the same amount, converted by molar mass. Several values for one entry are separate records, joined by “and”; a condition that tells them apart may be missing. Equal values may be shown once. Entries after “also recorded” stand apart in the source; their conditions may differ. Read-outs that look alike come from different tables or passages of the source.

How the values were obtained:
HepG2 cells [1] = assay: Cell viability (MTT) assay; type: cell-based, Human; conditions: for IC50: Homo sapiens, HepG2, 24 h; for HepG2 cell viability, effect in words: relative to control
Method: Human hepatoma (HepG2) cells were cultured in Dulbecco minimum essential medium (Lonza Biowhittaker, Switzerland) supplemented with 1% pen/strep/fungizone, 1% L-glutamine and 10% fetal bovine serum. The cells were maintained under the atmosphere of 5% CO2 at 37° C. Once 80% confluence had been reached, cells were enzymatically detached (trypsin) and utilized for the cell viability assay. The effect of MPR-SMN-05 on cell viability was determined using the 3-(4,5-Dimethyl-2-thiazolyl)-2,5-diphenyl-2H-tetrazolium bromide (MTT) assay according to previously reported studies by Mosmann (Mosmann T. Rapid colorimetric assay for cellular growth and survival: application to proliferation and cytotoxicity assays. Journal of immunological methods 1983; 65: 55-63). Approximately 15, 000 cells were seeded in a 96-well microtiter plate and allowed to adhere overnight. The cells were subsequently exposed to a range of 0 to 250 mg/L MPR-SMN-05 (experiments were done in triplicate). After incubation with MPR-SMN-05 for 24 h, cells were washed twice with 0.1 M phosphate buffer saline (PBS) and incubated with 20 μl MTT salt solution (5 mg/ml in 0.1 M PBS) and 100 μl complete culture medium (CCM) (37° C., 4 h). The MTT salt solution was then discarded and […] of DMSO was added to each well and incubated (37° C., 1 h) to dissolve the formazan crystals. The optical density was measured at 570/690 nm employing a spectrophotometer (Bio-Tek uQuant, Winooski, VT). The results were expressed as percentage cell viability vs. log concentration of MPR-SMN-05, from which the half maximal inhibitory concentration (IC50) was determined. Control treatments were represented by an equal amount of DMSO solvent in CCM without the test compound.

HepG2 cells [2] = assay: Lactate dehydrogenase (LDH) cytotoxicity assay; type: cell-based, Human; conditions: for Induction of necrosis / Extracellular lactate dehydrogenase (LDH) level: HepG2 cells; for Induction of necrosis: from LDH; for Extracellular lactate dehydrogenase (LDH) level: relative to control
Method: Human hepatoma (HepG2) cells were cultured in Dulbecco minimum essential medium (Lonza Biowhittaker, Switzerland) supplemented with 1% pen/strep/fungizone, 1% L-glutamine and 10% fetal bovine serum. The cells were maintained under the atmosphere of 5% CO2 at 37° C. Once 80% confluence had been reached, cells were enzymatically detached (trypsin) and utilized for the cell viability assay. The lactate dehydrogenase (LDH) cytotoxicity detection kit (Roche, Mannheim, Germany) was used to measure the cell damage and cytotoxicity in MPR-SMN-05-treated HepG2 cells. Extracellular LDH activity was quantified by incubating […] substrate solution (diaphorase/NAD+; INT/sodium lactate) in a 96 well microtiter plate at room temperature for 30 min. The assay was performed in triplicate. Optical density (OD) was measured following incubation at 500 nm using a spectrophotometric plate reader (Bio-Tek uQuant, Winooski, VT).

[3] = system: Klebsiella pneumoniae 449; assay: MIC broth microdilution checkerboard; type: cell-based; conditions: read-out: MIC, Meropenem administered alone
Method: (§1) Briefly, two-fold dilutions of each meropenem/BP or meropenem/TG from 0.015 to 16 μg/mL and 1 to 64 μg/mL respectively were made in cation adjusted Mueller-Hinton Broth (CAMHB) in a 96-well microtitre plate using the checkerboard method (King et al). A 0.5 McFarland-standardized bacterial inoculum was added to make a total volume of 100 μl in each microtitre well. The initial inoculum density was determined by plating out MHA plates for MBC testing. The plates were then incubated for 18-22 h at 37° C. under aerobic conditions. The MIC was determined as the lowest concentration at which there was no visible growth. Control wells included the amount of solvent used in dissolving drug candidates.

E. coli NDM-4 = assay: MIC broth microdilution checkerboard; type: cell-based; conditions: Escherichia coli
Method: as §1
(§2) To investigate the potential activity of BP1 and TG1 as MBLs inhibitors well characterized carbapenem-resistant bacteria expressing known class B carbapenemases were used. MICs using the broth micro-dilution method was conducted according to CLSI guidelines (Clinical and Laboratory Standards Institute. Performance Standards for Antimicrobial Susceptibility Testing: Twenty-Fourth Informational Supplement M100-S24. CLSI, Wayne, PA, USA, 2014) using cation adjusted Mueller-Hinton broth for meropenem, alone (See table 4) and in combination with the metal chelating agents BP1 and TG1 at variable concentrations (two-fold dilutions from 1 to 64 μg/mL). Escherichia coli ATCC 25922 was used as the control.

K. pneumonia IMP-1 = assay: MIC broth microdilution checkerboard; type: cell-based; conditions: Klebsiella pneumoniae
Method: as §1, §2

E. cloacae VIM-1 = assay: MIC broth microdilution checkerboard; type: cell-based; conditions: Enterobacter cloacae
Method: as §1, §2

P. rettgeri NDM-1 = assay: MIC broth microdilution checkerboard; type: cell-based; conditions: Providencia rettgeri
Method: as §1, §2

E. cloacae IMP-8 = assay: MIC broth microdilution checkerboard; type: cell-based; conditions: Enterobacter cloacae
Method: as §1, §2

E. coli IMP-1 = assay: MIC broth microdilution checkerboard; type: cell-based; conditions: Escherichia coli
Method: as §1, §2

K. pneumonia VIM-1 = assay: MIC broth microdilution checkerboard; type: cell-based; conditions: Klebsiella pneumoniae
Method: as §1, §2

K. pneumoniae IMP-8 [4] = assay: MIC broth microdilution checkerboard; type: cell-based; conditions: Klebsiella pneumoniae
Method: as §1, §2

E. coli NDM-1 [5] = assay: MIC broth microdilution checkerboard; type: cell-based, Escherichia coli
Method: as §1, §2

E. coli NDM-1 [6] = assay: Time-kill assay; type: cell-based; conditions: BP1 in combination with meropenem
Method: (§3) Time-kill studies were performed according to previously published methods, including those described by CLSI document M26-A. E. coli NDM-1, K. pneumoniae IMP-8 and K. pneumoniae NDM were the strains selected for this assay. Briefly, freshly prepared colonies were re-suspended in 10 mL CAMHB and incubated in a shaking incubator (37° C., 180 rpm) for 1 to 2 h. Cultures were then diluted to a 0.5 McFarland standard (approximately 10^8 CFU/mL) and further diluted 1:20 in CAMHB so that the starting inoculum was approximately 5×10^6 CFU/mL. […] A growth control with no antibiotic was also included. The starting inoculum was determined from the growth control tube immediately after dilution and was recorded as the count at time zero. After addition of antibiotics, the starting inoculum was approximately 1×10^6 to 5×10^6 CFU/mL. Tubes were incubated in a shaking incubator at 37° C., 180 rpm, and viability counts were performed at 1, 2, 4, 6, 8 and 24 h by removing 100 μL of the culture, diluting as appropriate, and plating 100 μL on MHA. MHA plates were incubated at 37° C. for at least 18 h. Colonies were counted, and the results were recorded as the number of CFU/mL. A ≥3−log10 decrease in the number of CFU/mL was considered bactericidal.

K. pneumoniae IMP-8 [7] = assay: Time-kill assay; type: cell-based; conditions: BP1 in combination with meropenem
Method: as §3

In the case of `C/C=C(/C(=O)N[C@@H]1C(=O)N2C(C(=O)O)=C(CSC(=O)c3ccco3)CS[C@H]12)c1csc(NC(=O)CC(C)N2CCN(CC)CCN(CC)CC2)n1` (stereo partly drawn) [BP6], the IC50 (HepG2 cells [1]) is reported as 51.8 µg/mL (≈ 68.2 µM), the “HepG2 cell viability, effect in words” value (HepG2 cells [1]) is reported as “dose dependent increase in the cell viability; also recorded: only significantly altered at 200 μg/ml” and the Induction of necrosis (HepG2 cells [2]) is reported as “does not induce necrosis”. For the same compound, the “Extracellular lactate dehydrogenase (LDH) level” value (HepG2 cells [2]) was “significantly reduced at all concentrations”.
With `C[C@@H](O)[C@H]1C(=O)N2C(C(=O)O)=C(S[C@@H]3CN[C@H](C(=O)N(C)C)C3)[C@H](C)[C@H]12` [Meropenem] the MIC [3] was greater than 32 µg/mL, the MIC (E. coli NDM-4; NDM4, E. coli NDM-4, read-out: MIC MEM alone) was > 16 µg/mL and > 42 µM and the MIC (K. pneumonia IMP-1; IMP1, K. pneumonia IMP-1, read-out: MIC MEM alone) was > 16 µg/mL and > 42 µM. The MIC (E. cloacae VIM-1; VIM1, E. cloacae VIM-1, read-out: MIC MEM alone) was 8 µg/mL and 21 µM, the MIC (P. rettgeri NDM-1; NDM1, P. rettgeri NDM-1, read-out: MIC MEM alone) was > 16 µg/mL and > 42 µM and the MIC (E. cloacae IMP-8; IMP8, E. cloacae IMP-8, read-out: MIC MEM alone) was 8 µg/mL and 21 µM. For the same compound, the MIC (E. coli IMP-1; IMP1, read-out: MIC MEM alone) was 16 µg/mL and 42 µM, the MIC (K. pneumonia VIM-1; VIM1, K. pneumonia VIM-1, read-out: MIC MEM alone) was > 16 µg/mL and > 42 µM and the MIC (K. pneumoniae IMP-8 [4]; IMP8, K. pneumoniae IMP-8, read-out: MIC MEM alone) was 8 µg/mL and 21 µM. The MIC (E. coli NDM-1 [5]; Escherichia coli, NDM1, E. coli NDM-1, read-out: MIC MEM alone) was > 16 µg/mL and > 42 µM and the MIC (E. coli NDM-1 [5]; NDM1, Escherichia coli NDM-1 (Table 6 footnote), read-out: MIC, Meropenem administered alone) was greater than 32 µg/mL.
With `O=C(O)CN1CCN(CC(=O)O)CCN(CC(=O)O)CC1` [TG1, 1,4,7-triazacyclononane-1,4,7-triacetic acid] the MIC (E. coli NDM-4; NDM4, read-out: MIC TG1 alone) was > 64 µg/mL and > 131 µM, the MIC (K. pneumonia IMP-1; IMP1, read-out: MIC TG1 alone) was > 64 µg/mL and > 131 µM and the MIC (E. cloacae VIM-1; VIM1, read-out: MIC TG1 alone) was > 64 µg/mL and > 131 µM. The MIC (P. rettgeri NDM-1; NDM1, read-out: MIC TG1 alone) was > 64 µg/mL and > 131 µM, the MIC (E. cloacae IMP-8; IMP8, read-out: MIC TG1 alone) was > 64 µg/mL and > 131 µM and the MIC (E. coli IMP-1; IMP1, read-out: MIC TG1 alone) was > 64 µg/mL and > 131 µM. The MIC (K. pneumonia VIM-1; VIM1, read-out: MIC TG1 alone) was > 64 µg/mL and > 131 µM, the MIC (K. pneumoniae IMP-8 [4]; IMP8, read-out: MIC TG1 alone) was > 64 µg/mL and > 131 µM and the MIC (E. coli NDM-1 [5]; Escherichia coli, NDM1, read-out: MIC TG1 alone) was > 64 µg/mL and > 131 µM.
With `CCN1CCN(CC)CCN(C(CC(=O)Nc2nc(/C(=C/CC(=O)O)C(=O)N[C@@H]3C(=O)N4C(C(=O)O)=CCS[C@H]34)cs2)C(=O)OC)CC1` (stereo partly drawn) [BP14] the IC50 (HepG2 cells [1]) was 42.3 µg/mL (≈ 59.8 µM), the “HepG2 cell viability, effect in words” value (HepG2 cells [1]) was “reduced cell viability at 1 μg/ml and 10-200 μg/ml; also recorded: proliferation occurred at 8 μg/ml” and the Induction of necrosis (HepG2 cells [2]) was “does not induce necrosis”. The “Extracellular lactate dehydrogenase (LDH) level” value (HepG2 cells [2]) was “significantly reduced at 8 μg/ml; also recorded: remained unaffected at 1 μg/ml and 10-200 μg/ml”.
`CCN1CCN(CC)CCN(C(CC(=O)NC2C(=O)N3C(C(=O)[O-])=C(C[n+]4ccccc4)CSC23)C(=O)OC)CC1` (stereo not drawn) [BP1] was tested, and the IC50 (HepG2 cells [1]) was 60 µg/mL (≈ 102 µM), the “HepG2 cell viability, effect in words” value (HepG2 cells [1]) was “dose-dependent decrease in cell viability was observed with a significant decrease occurring at 100 and 200 μg/ml” and the Time-kill kinetics outcome (E. coli NDM-1 [6]) was “bactericidal activity”. For the same compound, the Time-kill kinetics outcome (K. pneumoniae IMP-8 [7]) was “bactericidal activity”, the MIC (E. coli NDM-4; NDM4, E. coli NDM-4, read-out: MIC BP1 alone) was > 64 µg/mL and > 84 µM and the MIC (K. pneumonia IMP-1; IMP1, K. pneumonia IMP-1, read-out: MIC BP1 alone) was > 64 µg/mL and > 84 µM. The MIC (E. cloacae VIM-1; VIM1, E. cloacae VIM-1, read-out: MIC BP1 alone) was > 64 µg/mL and > 84 µM, the MIC (P. rettgeri NDM-1; NDM1, P. rettgeri NDM-1, read-out: MIC BP1 alone) was > 64 µg/mL and > 84 µM and the MIC (E. cloacae IMP-8; IMP8, E. cloacae IMP-8, read-out: MIC BP1 alone) was > 64 µg/mL and > 84 µM. For the same compound, the MIC (E. coli IMP-1; IMP1, read-out: MIC BP1 alone) was > 64 µg/mL and > 84 µM, the MIC (K. pneumonia VIM-1; VIM1, K. pneumonia VIM-1, read-out: MIC BP1 alone) was > 64 µg/mL and > 84 µM and the MIC (K. pneumoniae IMP-8 [4]; IMP8, K. pneumoniae IMP-8, read-out: MIC BP1 alone) was > 64 µg/mL and > 84 µM. For the same compound, the MIC (E. coli NDM-1 [5]; Escherichia coli, NDM1, E. coli NDM-1, read-out: MIC BP1 alone) was > 64 µg/mL and > 84 µM, the Induction of necrosis (HepG2 cells [2]) was “does not induce necrosis” and the “Extracellular lactate dehydrogenase (LDH) level” value (HepG2 cells [2]) was “significantly reduced at all concentrations”. For the same compound, the “Cytotoxicity, overall statement” value (HepG2 cells [2]; in vitro, cell lines) was “safe at the active concentrations”.
In the case of `CCC1=C(C(=O)O)N2C(=O)[C@@H](NC(=O)/C(=N/C)c3csc(NC(=O)CC(C)N4CCN(CC)CCN(CC)CC4)n3)[C@H]2SC1` (stereo partly drawn) [BP10], the IC50 (HepG2 cells [1]) is reported as 62 µg/mL (≈ 95.5 µM), the “HepG2 cell viability, effect in words” value (HepG2 cells [1]) is reported as “not significantly altered at 50-100 μg/ml; also recorded: significantly reduced at 200 μg/ml” and the Induction of necrosis (HepG2 cells [2]) is reported as “does not induce necrosis”. For the same compound, the “Extracellular lactate dehydrogenase (LDH) level” value (HepG2 cells [2]) was “remained unaffected at 1 μg/ml; also recorded: significantly reduced at 8-200 μg/ml”.
